According to publication PMC11591356, “Immunomodulatory Effects of the Tobacco Defensin NaD1” (Antibiotics, 2024):
Values joined by “and” are separate entries in the source; they are usually repeats but may differ in a detail not shown here. Equal entries are not always repeated. Ends that are not written are not given here.

Key:
[1] = tested on: immature monocyte-derived dendritic cells (moDC); assay: Multiplex xMAP assessment of cytokine production by immature monocyte-derived dendritic cells; type: cell-based, human
Experimental: Immature monocyte-derived dendritic cells (moDC) were obtained from primary monocytes by a differentiation protocol involving a cytokine cocktail with IL-4 and GM-CSF [38]. For this, the monocytes were cultured in complete RPMI-1640 containing 10% HS, 1×AA solution, 500 U/mL rhIL-4 (Sci-Store, Moscow, Russia) and 800 U/mL rhGM-CSF (Sci-Store) for 3 days. Then, the cells were re-fed with the fresh medium with rhIL-4 and rhGM-CSF and cultured for 4 more days.
For the study of the immunomodulatory properties of NaD1, monocytes and immature dendritic cells (moDC) were seeded into the wells of a 24-well plate at densities of 4 × 10^5 and 1.3 × 10^5 cells per well, respectively, in complete RPMI-1640 with 10% HS and AA solution. Then, 24 h later, the culture medium was replaced by a fresh one either with 2 μM NaD1 for stimulation of the cells or without if for the control wells. The cultures were kept in a humidified CO2-intubator for 24 h and then the samples of the culture media were taken and frozen.
The absolute levels of 48 cytokines, chemokines and growth factors were determined at a protein level by multiplex xMAP technology (Luminex, Austin, TX, USA). For this, a MILLIPLEX Human Panel A kit (HCYTA-60K-PX48, Merck, Darmstadt, Germany) was used and the following 48 analytes were evaluated in two biological replications: sCD40L, EGF, CCL11/Eotaxin-1, FGF-basic/FGF-2, Flt-3 ligand, CX3CL1/Fractalkine, G-CSF, GM-CSF, GROα, IFNα2, IFN-γ, IL-1α, IL-1β, IL-1RA, IL-2, IL-3, IL-4, IL-5, IL-6, IL-7, CXCL8/IL-8, IL-9, IL-10, IL-12(p40), IL-12(p70), IL-13, IL-15, IL-17A/CTLA8, IL-17E/IL-25, IL-17F, IL-18, IL-22, IL-27, CXCL10/IP-10, CCL2/MCP-1, CCL7/MCP-3, M-CSF, CCL22/MDC, CXCL9/MIG, CCL3/MIP-1α, CCL4/MIP-1β, PDGF-AA, PDGF-AB/BB, CCL5/RANTES, TGF-α, TNF-α, TNF-β and VEGF-A. The fluorescent data were obtained on a MAGPIX system (Merck) operated with xPONENT 4.2 software (Merck). Final analysis was performed in MILLIPLEX Analyst v5.1 software (Merck).

[2] = tested on: umbilical vein endothelial cells (HUVEC); design: method as in PMID 28179997; details: read-out: IC50, MTT cell viability assay; cited from earlier work
[3] = tested on: PBMCs; assay: Cytotoxicity assay, resazurin method, PBMCs; type: cell-based, human; details: for Cell viability: PBMCs, 24 h, resazurin
Excerpt: Peripheral blood mononuclear cells (PBMCs) from healthy donors were purchased from American Type Culture Collection (ATCC PCS-800-011). Primary monocytes were isolated from PBMCs by adherence to the plastic surface. For that, PBMCs were thawed, resuspended in RPMI-1640 culture medium (Corning, Corning, NY, USA) without serum at a concentration of 2 × 10^6 cells/mL, seeded into the wells of a 24-well plate and placed in a humidified CO2-intubator (CellXpert C170i, Eppendorf, Hamburg, Germany) for 1 h. After that, non-adherent cells were removed from the wells and attached monocytes were thoroughly washed with PBS and cultured in a CO2-intubator in complete RPMI-1640 containing 10% human serum (HS Type AB, Capricorn Scientific, Ebsdorfergrund, Germany) and 1×antibiotic-antimycotic (1×AA) solution (Sigma, St. Louis, MO, USA).
(§1) The cytotoxic effects of the tobacco defensin NaD1 towards PBMCs or Caco-2 cells were investigated in 96-well plates using the resazurin method as previously described. In brief, 4 × 10^5 per well Caco-2 cells not in a monolayer as well as Caco-2 cells in a monolayer in DMEM/F12 (1:1) medium with 10% FBS or 2 × 10^6 PBMCs per well in RPMI-1640 also with 10% FBS were incubated with serial dilutions of NaD1 at final concentrations from 0.39 to 50 μM or from 2.1 to 180 μM for 24 h. After that, resazurin (Sigma, St. Louis, MO, USA) was added at a final concentration of 70 µM and the plates were incubated overnight (16–18 h). Untreated cells and cells treated by non-ionogenic detergent Triton X-100 were used as negative and positive controls, respectively. […] The cell viability was estimated by resorufin fluorescence registered at […] via the following equation: cell viability (%) = (Fsample/Fcontrol) × 100%. Experiment was carried out twice in duplicate.

[4] = tested on: human dermal fibroblast cells (AHDF); design: method as in PMID 28179997; details: read-out: IC50, MTT cell viability assay; cited from earlier work
[5] = tested on: Caco-2 cells in a monolayer; assay: Cytotoxicity assay, resazurin method, Caco-2 cells in a monolayer; type: cell-based, human; details: 24 h; for Cell viability: Caco-2 monolayer
Experimental: as §1

Substance: NaD1: Recombinant tobacco floral defensin NaD1 (UNIPROT Q8GTM0), obtained by heterologous expression in E. coli; FITC-labeled in the permeability assay (RECKTESNTFPGICITKPPCRKACISEKFTDGHCSKILRRCLCTKPC; cysteine pairing not given here; also: FITC label; UniProt Q8GTM0 26-72, looked up)
- sCD40L absolute level ([1]; immature moDCs + 2 μM NaD1, 24 h, two biological replications, untreated control 116.89): 92.12 pg/mL
- IL-2 absolute level ([1]; moDCs + 2 μM NaD1, 24 h, control 0.51): <0.35↓ pg/ml
- IFNg absolute level ([1]; moDCs + 2 μM NaD1, 24 h, control 0.81): <0.61↓ pg/ml
- IL-18 absolute level ([1]; moDCs + 2 μM NaD1, 24 h, control 1.17): 0.78 pg/mL
- IL-10 absolute level ([1]; moDCs + 2 μM NaD1, 24 h, control 1.76): <1.29↓ pg/ml
- IL-6 absolute level ([1]; moDCs + 2 μM NaD1, 24 h, control 1.92): 0.85 pg/mL
- IL-9 absolute level ([1]; moDCs + 2 μM NaD1, 24 h, control 2.31): 0.83 pg/mL
- IP-10 absolute level ([1]; moDCs + 2 μM NaD1, 24 h, control 2.51): 2.51 pg/mL
- GM-CSF absolute level ([1]; moDCs + 2 μM NaD1, 24 h, control 3.8): 2.87 pg/mL
- IL-4 absolute level ([1]; moDCs + 2 μM NaD1, 24 h, control 4.21): 4.38 pg/mL
- GROa absolute level ([1]; moDCs + 2 μM NaD1, 24 h, control 5.3): 2.88 pg/mL
- EGF absolute level ([1]; moDCs + 2 μM NaD1, 24 h, control 5.38): 3.12 pg/mL
- TGF-a absolute level ([1]; moDCs + 2 μM NaD1, 24 h, control 6.04): 4.68 pg/mL
- IL-12 (p40) absolute level ([1]; moDCs + 2 μM NaD1, 24 h, control 6.14): <2.07↓ pg/ml
- G-CSF absolute level ([1]; moDCs + 2 μM NaD1, 24 h, control 6.59): 6.59 pg/mL
- IL-13 absolute level ([1]; moDCs + 2 μM NaD1, 24 h, control 10.99): <2.24↓ pg/ml
- IL-1b absolute level ([1]; moDCs + 2 μM NaD1, 24 h, control 12.11): 5.8 pg/mL
- IL-1a absolute level ([1]; moDCs + 2 μM NaD1, 24 h, control 12.13): 15.76 pg/mL
- IFNa2 absolute level ([1]; moDCs + 2 μM NaD1, 24 h, control 13.22): 7.1 pg/mL
- PDGF-AA absolute level ([1]; moDCs + 2 μM NaD1, 24 h, control 14.68): 12.15 pg/mL
- Fractalkine absolute level ([1]; moDCs + 2 μM NaD1, 24 h, control 26.94): 20.9 pg/mL
- TNFa absolute level ([1]; moDCs + 2 μM NaD1, 24 h, control 45.9): 30.64 pg/mL
- MCP-3 absolute level ([1]; moDCs + 2 μM NaD1, 24 h, control 62.22): 44.12 pg/mL
- MIP-1a absolute level ([1]; moDCs + 2 μM NaD1, 24 h, control 62.72): 35.36 pg/mL
- MIG absolute level ([1]; moDCs + 2 μM NaD1, 24 h, control 76.28): 16.72 pg/mL
- FGF-2 absolute level ([1]; moDCs + 2 μM NaD1, 24 h, control 78.9): 71.22 pg/mL
- IL-27 absolute level ([1]; moDCs + 2 μM NaD1, 24 h, control 80.06): 68.79 pg/mL
- M-GSF absolute level ([1]; moDCs + 2 μM NaD1, 24 h, control 101.68): 45.07 pg/mL
- IL-1RA absolute level ([1]; moDCs + 2 μM NaD1, 24 h, control 199.63): 133 pg/mL and 133.58 pg/mL
- MIP-1b absolute level ([1]; moDCs + 2 μM NaD1, 24 h, control 204.09): 120 pg/mL and 120.19 pg/mL
- MCP-1 absolute level ([1]; moDCs + 2 μM NaD1, 24 h, control 514.13): 288 pg/mL and 288.04 pg/mL
- MDC absolute level ([1]; moDCs + 2 μM NaD1, 24 h, control 1484): 1278 pg/mL
- IL-8 absolute level ([1]; moDCs + 2 μM NaD1, 24 h, control 1856): 1037 pg/mL
- IL-7 absolute level ([1]; moDCs + 2 μM NaD1, 24 h, control <0.32): <0.32↓ pg/ml
- IL-5 absolute level ([1]; moDCs + 2 μM NaD1, 24 h, control <0.33): <0.33↓ pg/ml
- FLT-3L absolute level ([1]; moDCs + 2 μM NaD1, 24 h, control <0.61): <0.61↓ pg/ml
- RANTES absolute level ([1]; moDCs + 2 μM NaD1, 24 h, control <0.73): <0.73↓ pg/ml
- IL-3 absolute level ([1]; moDCs + 2 μM NaD1, 24 h, control <0.77): <0.77↓ pg/ml
- TNFb absolute level ([1]; moDCs + 2 μM NaD1, 24 h, control <0.78): <0.78↓ pg/ml
- IL-17A absolute level ([1]; moDCs + 2 μM NaD1, 24 h, control <1.00): <1.00↓ pg/ml
- VEGFa absolute level ([1]; moDCs + 2 μM NaD1, 24 h, control <1.44): <1.44↓ pg/ml
- IL-12 (p70) absolute level ([1]; moDCs + 2 μM NaD1, 24 h, control <1.79): <1.79↓ pg/ml
- IL-15 absolute level ([1]; moDCs + 2 μM NaD1, 24 h, control <1.84): <1.84↓ pg/ml
- Eotaxin absolute level ([1]; moDCs + 2 μM NaD1, 24 h, control <3.80): <3.80↓ pg/ml
- PDGF-AB/BB absolute level ([1]; moDCs + 2 μM NaD1, 24 h, control <5.75): <5.75↓ pg/ml
- IL-22 absolute level ([1]; moDCs + 2 μM NaD1, 24 h, control <9.00): <9.00↓ pg/ml
- IL-17F absolute level ([1]; moDCs + 2 μM NaD1, 24 h, control <16.98): <16.98↓ pg/ml
- IL-17E/IL-25 absolute level ([1]; moDCs + 2 μM NaD1, 24 h, control <25.82): <25.82↓ pg/ml
- IC50 [2]: ~10 µM
- Cell viability ([3]; peptide 50 µM, twice in duplicate): approximately 90%
- Cell viability ([3]; peptide 180 μM): more than 50%
- Cytotoxic effect against the tested immune and epithelial cells ([3]; peptide 12.5 µM, PBMCs and Caco-2): did not exhibit a cytotoxic effect
- IC50 [4]: ~10 µM
- Cell viability ([5]; peptide 25 µM): approximately 85%
- Cell viability ([5]; peptide 50 µM): ~70%
- Cytotoxic effect on Caco-2 cells in a monolayer ([5]; peptide 12.5 µM): no effects
